# Laboratory results: patent publication WO2016169030A1, “Fumarate and crystals of pyridylamine compound” (priority 2015, dated 2016)
# Test: Humidity (wettability/hygroscopicity) test, Chinese Pharmacopoeia 2010
# Format: physicochemical
# Details: Guidelines for Drug Wetting Test, Chinese Pharmacopoeia 2010 Edition 2 Appendix XIX J; Table 2
row,Wet weight gain,Compound
1,0.80%,CC(=O)Nc1ncc(-c2cnn(C3CCNCC3)c2)cc1O[C@H](C)c1c(Cl)ccc(F)c1Cl.O=C(O)/C=C/C(=O)O [Fumarate]
2,61.75%,"CC(=O)Nc1ncc(-c2cnn(C3CCNCC3)c2)cc1O[C@H](C)c1c(Cl)ccc(F)c1Cl [Compound of formula (II), N-Acetyl-3-[(1R)-1-(2,6-dichloro-3-fluorophenyl)ethoxy]-5-[1-(4-piperidinyl)-1H-pyrazol-4-yl]-2-pyridinamine]"
3,7.83%,O=C(O)CC(O)C(=O)O (stereo not drawn) [Malate]
